Results reported in ChEMBL document CHEMBL1157330, “Diplobifuranylones A and B, 5'-monosubstituted tetrahydro-2H-bifuranyl-5-ones produced by Diplodia corticola, a fungus pathogen of cork oak” (J Nat Prod, 2006).

Test system: Solanum lycopersicum
Experiment: Phytotoxicity against Lycopersicon esculentum L. var. Marmande at 0.05 to 0.1 mg/mL by tomato cutting assay
Format: organism-based
Conditions: in vivo

C[C@H](O)[C@@H]1C=CC(C2CCC(=O)O2)O1 (some centres not stated) [DIPLOBIFURANYLONE A]
Activity: Non-toxic

C[C@H](O)[C@H]1C=CC(C2CCC(=O)O2)O1 (some centres not stated) [DIPLOBIFURANYLONE B]
Activity: Non-toxic
